Assay results as given in PMC7827406, “Structure–Activity Relationship (SAR) Study of Spautin-1 to Entail the Discovery of Novel NEK4 Inhibitors” (International Journal of Molecular Sciences, 2021).
Where two headings read alike, the source gives them in different places.

Tests used:
Assay in all cases: biochemical
Design in all cases: Eurofins KinaseProfiler full panel at Km ATP, residual kinase activity (%) relative to DMSO
Blk(m) = Blk(m) (Mus musculus, UniProt P16277)
Procedure: (§1) Eurofins performed a “Full KP Panel [Km ATP], KinaseProfile” which contains 429 radiometric kinase activity assays. The remaining kinase activity (%) was determined after treatment with the compounds at a concentration of 10 µM (Cfr. supporting information). Since we could not confirm the interaction between Spautin-1 analogues and USP13, a kinase screening was performed using a set of four compounds (Spautin-1 and three analogues) to discover off-targets and identify kinases that are potentially responsible for the reduction in cell viability observed in our screen (Table 2). The KINOMEscan from Eurofins was performed (see Table S1). This screen consists of a competitive binding assay in which the DNA-tagged kinase is incubated with one of the compounds in the presence of immobilized active site binding ligands. Binding of the compounds to the kinase hampers the binding of the kinase to the ligands and this inhibition was quantified by qPCR. The residual kinase activity, which represents the percentage of kinase attached to the immobilized ligands, was determined for 428 kinases at a standard screening concentration of 10 µM of the compounds dissolved in DMSO [61].

Hck(h) = Hck(h) (Homo sapiens, UniProt P08631)
Hck(h), sequence (P08631 whole entry): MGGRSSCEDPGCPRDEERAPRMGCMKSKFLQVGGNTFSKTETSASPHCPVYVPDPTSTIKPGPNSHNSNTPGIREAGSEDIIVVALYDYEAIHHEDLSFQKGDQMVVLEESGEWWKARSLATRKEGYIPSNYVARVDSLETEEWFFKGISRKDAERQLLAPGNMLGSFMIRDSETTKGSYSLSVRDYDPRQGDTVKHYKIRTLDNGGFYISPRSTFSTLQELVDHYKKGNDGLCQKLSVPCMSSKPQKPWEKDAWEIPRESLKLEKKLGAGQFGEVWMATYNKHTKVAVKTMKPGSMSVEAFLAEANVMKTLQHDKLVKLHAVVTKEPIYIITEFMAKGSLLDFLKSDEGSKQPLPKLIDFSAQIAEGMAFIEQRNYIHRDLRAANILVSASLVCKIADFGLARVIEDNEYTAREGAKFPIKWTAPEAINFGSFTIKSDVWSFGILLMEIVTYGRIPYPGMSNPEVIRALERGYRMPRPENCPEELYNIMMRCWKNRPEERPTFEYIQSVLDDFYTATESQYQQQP
Procedure: as §1

JNK2α2(h) = biological target: T1, JNK2α2(h) (Homo sapiens, UniProt P45984)
T1 construct: gene MAPK9; isoform alpha2
T1 sequence (P45984 whole entry, canonical isoform): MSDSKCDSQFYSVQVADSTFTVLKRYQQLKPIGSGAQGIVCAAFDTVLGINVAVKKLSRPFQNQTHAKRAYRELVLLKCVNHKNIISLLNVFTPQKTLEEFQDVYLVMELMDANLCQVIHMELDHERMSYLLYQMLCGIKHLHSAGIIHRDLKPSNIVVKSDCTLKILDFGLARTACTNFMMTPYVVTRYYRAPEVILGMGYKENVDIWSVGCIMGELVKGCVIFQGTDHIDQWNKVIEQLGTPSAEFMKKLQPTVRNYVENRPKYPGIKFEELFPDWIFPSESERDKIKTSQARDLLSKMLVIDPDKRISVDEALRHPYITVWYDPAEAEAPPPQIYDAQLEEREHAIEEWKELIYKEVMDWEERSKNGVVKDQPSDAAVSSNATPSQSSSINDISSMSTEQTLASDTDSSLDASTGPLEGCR
Procedure: as §1

KDR(h) = KDR(h) (Homo sapiens, UniProt P35968)
KDR(h), sequence (P35968 whole entry): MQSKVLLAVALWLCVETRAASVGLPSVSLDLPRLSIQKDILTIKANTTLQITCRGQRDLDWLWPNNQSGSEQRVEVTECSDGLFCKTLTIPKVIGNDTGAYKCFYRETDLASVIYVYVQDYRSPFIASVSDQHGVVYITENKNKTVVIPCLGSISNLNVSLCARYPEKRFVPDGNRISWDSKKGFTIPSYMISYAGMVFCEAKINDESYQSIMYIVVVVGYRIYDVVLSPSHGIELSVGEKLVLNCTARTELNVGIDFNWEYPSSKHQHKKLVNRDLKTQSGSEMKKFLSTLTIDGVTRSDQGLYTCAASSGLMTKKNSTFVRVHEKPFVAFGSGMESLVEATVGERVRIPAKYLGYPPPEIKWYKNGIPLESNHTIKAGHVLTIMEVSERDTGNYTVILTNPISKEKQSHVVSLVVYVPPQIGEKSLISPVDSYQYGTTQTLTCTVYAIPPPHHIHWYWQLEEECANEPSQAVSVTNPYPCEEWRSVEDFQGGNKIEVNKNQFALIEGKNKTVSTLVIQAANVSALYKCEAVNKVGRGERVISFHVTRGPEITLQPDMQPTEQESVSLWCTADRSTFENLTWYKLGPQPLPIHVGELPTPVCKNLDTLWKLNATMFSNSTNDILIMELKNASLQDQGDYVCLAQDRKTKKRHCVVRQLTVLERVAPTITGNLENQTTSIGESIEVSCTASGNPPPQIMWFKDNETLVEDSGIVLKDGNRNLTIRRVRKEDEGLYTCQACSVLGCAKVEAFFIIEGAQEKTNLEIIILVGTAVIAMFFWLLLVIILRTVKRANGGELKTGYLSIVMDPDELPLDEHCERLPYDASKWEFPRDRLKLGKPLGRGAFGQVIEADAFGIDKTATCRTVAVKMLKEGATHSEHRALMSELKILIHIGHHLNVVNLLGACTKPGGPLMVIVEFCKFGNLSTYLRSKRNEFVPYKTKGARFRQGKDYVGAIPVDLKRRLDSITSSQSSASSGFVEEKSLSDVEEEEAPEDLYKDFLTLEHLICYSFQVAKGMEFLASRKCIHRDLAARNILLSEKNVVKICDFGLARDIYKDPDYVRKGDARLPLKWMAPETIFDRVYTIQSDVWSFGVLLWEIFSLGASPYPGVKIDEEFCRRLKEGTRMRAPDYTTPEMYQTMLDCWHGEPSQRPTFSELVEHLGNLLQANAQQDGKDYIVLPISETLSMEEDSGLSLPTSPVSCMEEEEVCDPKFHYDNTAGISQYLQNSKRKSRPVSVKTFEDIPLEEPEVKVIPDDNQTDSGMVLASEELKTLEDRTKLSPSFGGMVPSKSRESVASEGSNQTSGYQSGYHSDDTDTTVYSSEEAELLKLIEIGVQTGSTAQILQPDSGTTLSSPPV
Procedure: as §1

[1] = biological target: T2, PI3 Kinase (p110a(H1047R)/p85a)(h) (Homo sapiens, UniProt P42336, H1047R)
T2 construct: gene PIK3CA
T2 sequence (P42336 whole entry H1047R): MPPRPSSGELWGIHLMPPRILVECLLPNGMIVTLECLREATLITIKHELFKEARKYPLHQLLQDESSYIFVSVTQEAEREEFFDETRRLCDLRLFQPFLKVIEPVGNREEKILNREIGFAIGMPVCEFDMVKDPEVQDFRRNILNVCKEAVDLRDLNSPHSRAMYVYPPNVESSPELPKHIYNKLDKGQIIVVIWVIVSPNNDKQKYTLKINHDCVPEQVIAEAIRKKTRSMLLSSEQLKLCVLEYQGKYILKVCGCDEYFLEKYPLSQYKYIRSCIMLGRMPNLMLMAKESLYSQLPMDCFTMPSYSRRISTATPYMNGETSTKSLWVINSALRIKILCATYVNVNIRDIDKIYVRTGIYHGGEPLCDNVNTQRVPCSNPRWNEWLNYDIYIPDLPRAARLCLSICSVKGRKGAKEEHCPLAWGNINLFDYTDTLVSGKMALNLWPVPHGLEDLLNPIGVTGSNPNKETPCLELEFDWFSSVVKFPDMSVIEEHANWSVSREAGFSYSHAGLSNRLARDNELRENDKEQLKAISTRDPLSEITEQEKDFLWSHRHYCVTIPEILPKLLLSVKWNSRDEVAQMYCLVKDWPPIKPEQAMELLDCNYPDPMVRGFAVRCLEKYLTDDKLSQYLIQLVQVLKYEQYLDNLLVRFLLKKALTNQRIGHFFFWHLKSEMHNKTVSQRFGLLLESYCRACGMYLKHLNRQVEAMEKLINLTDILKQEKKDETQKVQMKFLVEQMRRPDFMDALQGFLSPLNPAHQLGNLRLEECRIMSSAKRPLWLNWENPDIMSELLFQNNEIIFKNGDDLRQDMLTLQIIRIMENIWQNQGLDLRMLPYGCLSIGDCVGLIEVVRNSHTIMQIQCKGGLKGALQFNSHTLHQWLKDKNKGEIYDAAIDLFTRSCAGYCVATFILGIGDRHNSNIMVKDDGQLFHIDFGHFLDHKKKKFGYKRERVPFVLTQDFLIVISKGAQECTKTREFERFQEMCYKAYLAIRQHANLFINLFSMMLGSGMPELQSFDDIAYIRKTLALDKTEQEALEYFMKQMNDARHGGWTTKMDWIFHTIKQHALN
T2 sequence (P27986 whole entry partner): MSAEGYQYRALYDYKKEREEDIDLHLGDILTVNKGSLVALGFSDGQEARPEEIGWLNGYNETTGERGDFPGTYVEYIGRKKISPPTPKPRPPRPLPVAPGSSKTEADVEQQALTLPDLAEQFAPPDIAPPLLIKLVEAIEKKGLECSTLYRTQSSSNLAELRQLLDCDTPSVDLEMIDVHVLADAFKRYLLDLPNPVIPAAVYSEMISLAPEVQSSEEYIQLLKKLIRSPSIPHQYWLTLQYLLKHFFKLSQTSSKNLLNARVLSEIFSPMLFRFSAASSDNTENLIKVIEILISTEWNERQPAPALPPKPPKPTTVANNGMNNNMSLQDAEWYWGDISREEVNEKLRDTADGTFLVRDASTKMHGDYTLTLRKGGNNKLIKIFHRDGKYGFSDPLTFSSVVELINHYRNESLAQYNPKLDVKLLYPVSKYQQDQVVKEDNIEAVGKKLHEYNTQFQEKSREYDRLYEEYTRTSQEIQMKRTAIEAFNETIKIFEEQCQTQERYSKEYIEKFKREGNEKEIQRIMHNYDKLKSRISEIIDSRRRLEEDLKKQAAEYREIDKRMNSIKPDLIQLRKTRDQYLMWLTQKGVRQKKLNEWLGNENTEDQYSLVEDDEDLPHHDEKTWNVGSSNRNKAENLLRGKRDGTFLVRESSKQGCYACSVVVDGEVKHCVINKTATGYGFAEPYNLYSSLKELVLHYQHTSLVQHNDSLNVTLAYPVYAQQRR
Procedure: as §1

[2] = biological target: T3, PI3 Kinase (p110a/p65a)(h) (Homo sapiens, UniProt P42336)
T3 construct: gene PIK3CA; with p65a
T3 sequence (P42336 whole entry): as the sequence (P42336 whole entry H1047R) above, with R1047H counted along it
T3 sequence (P27986 whole entry partner): as the sequence (P27986 whole entry partner) above
Procedure: as §1

PKCζ(h) = biological target: T4, PKCζ(h) (Homo sapiens, UniProt Q05513)
T4 construct: gene PRKCZ
T4 sequence (Q05513 1-592): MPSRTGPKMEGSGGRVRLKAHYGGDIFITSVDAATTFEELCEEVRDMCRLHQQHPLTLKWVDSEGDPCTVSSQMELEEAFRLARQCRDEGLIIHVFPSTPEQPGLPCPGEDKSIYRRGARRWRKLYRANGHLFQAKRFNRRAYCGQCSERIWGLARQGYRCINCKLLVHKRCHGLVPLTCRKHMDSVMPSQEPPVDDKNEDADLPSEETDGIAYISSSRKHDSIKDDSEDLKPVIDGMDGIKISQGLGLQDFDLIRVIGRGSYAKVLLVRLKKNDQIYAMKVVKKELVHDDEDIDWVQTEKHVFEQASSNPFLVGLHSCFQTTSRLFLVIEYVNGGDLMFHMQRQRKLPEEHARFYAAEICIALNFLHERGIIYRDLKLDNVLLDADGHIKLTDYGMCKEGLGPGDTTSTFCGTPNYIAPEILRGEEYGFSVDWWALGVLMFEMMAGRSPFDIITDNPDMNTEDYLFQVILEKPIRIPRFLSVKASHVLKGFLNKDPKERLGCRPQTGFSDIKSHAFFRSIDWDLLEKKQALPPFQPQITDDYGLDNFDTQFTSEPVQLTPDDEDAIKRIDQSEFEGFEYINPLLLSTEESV
Procedure: as §1

PKG1α(h) = biological target: T5, PKG1α(h) (Homo sapiens, UniProt Q13976)
T5 construct: gene PRKG1; isoform 1alpha
T5 sequence (Q13976 1-671): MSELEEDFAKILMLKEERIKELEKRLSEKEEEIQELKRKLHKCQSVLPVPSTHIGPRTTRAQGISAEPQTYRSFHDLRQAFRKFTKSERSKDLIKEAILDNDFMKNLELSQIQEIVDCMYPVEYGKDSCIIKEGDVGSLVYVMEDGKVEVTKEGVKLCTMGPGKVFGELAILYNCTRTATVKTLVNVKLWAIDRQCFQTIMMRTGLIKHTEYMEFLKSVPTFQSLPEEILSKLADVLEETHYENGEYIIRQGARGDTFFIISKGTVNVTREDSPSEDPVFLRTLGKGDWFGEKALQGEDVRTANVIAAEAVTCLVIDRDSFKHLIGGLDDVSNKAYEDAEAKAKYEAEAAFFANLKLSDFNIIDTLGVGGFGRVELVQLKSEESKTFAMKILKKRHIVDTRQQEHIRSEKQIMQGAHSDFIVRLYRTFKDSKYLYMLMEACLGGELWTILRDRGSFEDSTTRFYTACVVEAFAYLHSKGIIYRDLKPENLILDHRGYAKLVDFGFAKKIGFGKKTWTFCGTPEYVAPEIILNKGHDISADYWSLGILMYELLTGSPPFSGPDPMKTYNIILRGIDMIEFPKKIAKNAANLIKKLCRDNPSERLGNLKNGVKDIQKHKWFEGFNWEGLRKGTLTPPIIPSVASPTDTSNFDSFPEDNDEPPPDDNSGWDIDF
Procedure: as §1

STK32B(h) = STK32B(h) (Homo sapiens, UniProt Q9NY57)
Procedure: as §1

[3] = read-out: Residual activity (%) 5ay
[4] = read-out: Residual activity (%) Spautin-1 5aa
[5] = read-out: Residual activity (%) 5at
[6] = read-out: Residual activity (%) 5as

Blk(m), sequence (P16277 whole entry): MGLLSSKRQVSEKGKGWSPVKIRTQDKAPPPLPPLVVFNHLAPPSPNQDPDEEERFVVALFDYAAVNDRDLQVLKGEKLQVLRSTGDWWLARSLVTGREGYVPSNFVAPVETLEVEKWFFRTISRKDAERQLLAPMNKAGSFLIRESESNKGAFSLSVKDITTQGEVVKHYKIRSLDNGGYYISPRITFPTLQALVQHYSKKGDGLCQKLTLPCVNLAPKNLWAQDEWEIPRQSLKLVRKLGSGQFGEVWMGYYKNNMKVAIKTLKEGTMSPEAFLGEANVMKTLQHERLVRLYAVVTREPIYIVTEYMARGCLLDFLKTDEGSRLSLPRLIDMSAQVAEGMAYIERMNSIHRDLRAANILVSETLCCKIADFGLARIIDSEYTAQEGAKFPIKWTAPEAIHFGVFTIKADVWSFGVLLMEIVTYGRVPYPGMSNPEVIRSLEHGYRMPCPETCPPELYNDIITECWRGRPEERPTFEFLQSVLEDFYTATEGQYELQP

Q: For `COc1ccc2ncnc(Nc3cccc(F)c3)c2c1` [5ay, N-(3-Fluorophenyl)-6-Methoxy-4-Quinazolinamine], which remaining activity at 10 µM (Blk(m); [3]) is on record?
A: The remaining activity at 10 µM was 102%.

Q: And the remaining activity at 10 µM (Hck(h); [3])?
A: Its remaining activity at 10 µM is 64%.

Q: What about the remaining activity at 10 µM (JNK2α2(h); [3]) of the same molecule?
A: The remaining activity at 10 µM was 82%.

Q: What about the remaining activity at 10 µM (KDR(h); [3]) of the same molecule?
A: The remaining activity at 10 µM was 64%.

Q: What about the remaining activity at 10 µM [1, 3] of the same molecule?
A: The remaining activity at 10 µM was 96%.

Q: What about the remaining activity at 10 µM [2, 3] of the same molecule?
A: The remaining activity at 10 µM was 91%.

Q: And the remaining activity at 10 µM (PKCζ(h); [3])?
A: The remaining activity at 10 µM was 91%.

Q: And the remaining activity at 10 µM (PKG1α(h); [3])?
A: Its remaining activity at 10 µM is 95%.

Q: What about the remaining activity at 10 µM (STK32B(h); [3]) of the same molecule?
A: Its remaining activity at 10 µM is 93%.

Q: What does the source list for `Fc1ccc(CNc2ncnc3ccc(F)cc23)cc1` [5aa, 6-Fluoro-N-(4-fluorobenzyl)-4-Quinazolinamine]?
A: remaining activity at 10 µM (Blk(m); [4]): 91%; remaining activity at 10 µM (Hck(h); [4]): 72%; remaining activity at 10 µM (JNK2α2(h); [4]): 89%; remaining activity at 10 µM (KDR(h); [4]): 86%; remaining activity at 10 µM [1, 4]: 99%; remaining activity at 10 µM [2, 4]: 98%; remaining activity at 10 µM (PKCζ(h); [4]): 85%; remaining activity at 10 µM (PKG1α(h); [4]): 91%; remaining activity at 10 µM (STK32B(h); [4]): 95%

Q: What does the source list for `Fc1ccc2ncnc(NCCc3ccc(Cl)cc3)c2c1` [5at, N-[2-(4-Chlorophenyl)Ethyl]-6-Fluoro-4-Quinazolinamine]?
A: remaining activity at 10 µM (Blk(m); [5]): 98%; remaining activity at 10 µM (Hck(h); [5]): 62%; remaining activity at 10 µM (JNK2α2(h); [5]): 88%; remaining activity at 10 µM (KDR(h); [5]): 74%; remaining activity at 10 µM [1, 5]: 94%; remaining activity at 10 µM [2, 5]: 94%; remaining activity at 10 µM (PKCζ(h); [5]): 71%; remaining activity at 10 µM (PKG1α(h); [5]): 93%; remaining activity at 10 µM (STK32B(h); [5]): 97%

Q: Which remaining activity at 10 µM (Blk(m); [6]) does the source give for `Fc1ccc(CCNc2ncnc3ccc(F)cc23)cc1` [5as, 6-Fluoro-N-[2-(4-Fluorophenyl)Ethyl]-4-Quinazolinamine] here?
A: Its remaining activity at 10 µM is 100%.

Q: What about the remaining activity at 10 µM (Hck(h); [6]) of the same molecule?
A: Its remaining activity at 10 µM is 74%.

Q: And the remaining activity at 10 µM (JNK2α2(h); [6])?
A: Its remaining activity at 10 µM is 78%.

Q: And the remaining activity at 10 µM (KDR(h); [6])?
A: Its remaining activity at 10 µM is 77%.

Q: What about the remaining activity at 10 µM [1, 6] of the same molecule?
A: Its remaining activity at 10 µM is 97%.

Q: And the remaining activity at 10 µM [2, 6]?
A: Its remaining activity at 10 µM is 95%.

Q: And the remaining activity at 10 µM (PKCζ(h); [6])?
A: Its remaining activity at 10 µM is 75%.

Q: What about the remaining activity at 10 µM (PKG1α(h); [6]) of the same molecule?
A: The remaining activity at 10 µM was 96%.

Q: And the remaining activity at 10 µM (STK32B(h); [6])?
A: The remaining activity at 10 µM was 92%.
